According to publication PMC5826112, “Intrapulmonary Pharmacokinetics of Relebactam, a Novel β-Lactamase Inhibitor, Dosed in Combination with Imipenem-Cilastatin in Healthy Subjects” (Antimicrobial Agents and Chemotherapy, 2018):
Entries after “also recorded” stand apart in the source; their conditions may differ. Where two headings read alike, the source gives them in different places.

Columns and labels:
[1] = parameters: method as in PMID 21300830; conditions: patients with ventilator-associated pneumonia; cited from earlier work
[2] = parameters: method as in PMID 26349830; conditions: healthy adults, meropenem-RPX7009; cited from earlier work
[3] = healthy adults, ceftolozane-tazobactam; cited from earlier work
[4] = parameters: method as in PMID 7831630; conditions: orally administered amoxicillin-clavulanate; cited from earlier work
[5] = critically ill patients, multiple doses of piperacillin-tazobactam; cited from earlier work
[6] = Intrapulmonary (ELF, AC) and plasma pharmacokinetics after multiple-dose IV relebactam with imipenem-cilastatin, bronchoscopy/BAL, noncompartmental analysis; type: in vivo, human (healthy subjects); conditions: for t1/2 (terminal half-life) / half-life / AUC(0-inf) / Cmax / Tmax / AUC(0-t): mean profile; for half-life: read-out: t1/2 (terminal half-life) (converted); for AUC(0-inf): noncompartmental analysis; for AUC(0-t): read-out: AUC0–3; for concentrations in AC (alveolar cells): result in words
Procedure: Dosing and administration of imipenem-cilastatin were carried out in a manner consistent with the recommended labeled posology. BAL fluid specimens were obtained during bronchoscopy for the determination of the relebactam and imipenem concentrations in the ELF and AC. Four aliquots of normal saline (50 ml each) were sequentially instilled and aspirated after each instillation. The first aspirate was discarded, and the remaining aspirates were pooled and used to obtain urea and drug level measurements. Aliquots were obtained for cell count/differential, and the remainder of the pooled aspirates was centrifuged. The liquid aspirate and cell pellet were separated and stored at −70°C. The supernatant was sent for urea and drug level measurements. Blood samples were collected prior to the first and fifth doses of study drug for the determination of relebactam and imipenem plasma concentrations. Blood samples were also collected during the bronchoscopy/BAL procedure for the determination of relebactam, imipenem, and urea concentrations. Relebactam and imipenem levels in plasma, pulmonary ELF, and AC were measured simultaneously via acetonitrile protein precipitation and hydrophilic interaction liquid chromatography (HILIC) with detection via liquid chromatography-tandem mass spectrometry (LC-MS/MS). The system consisted of a Waters Acquity ultraperformance liquid chromatograph (Waters Corp., Milford, MA) and an API 4000 or 5000 triple-quadrupole tandem mass spectrometer (Sciex, Framingham, MA) equipped with a turbo-ion spray interface and operated in the positive ionization mode. The multiple reaction monitoring (MRM) transitions monitored were m/z 349 → 269 for relebactam, m/z 300 → 98 for imipenem, and m/z 354 → 274 and m/z 307 → 98 for their respective internal standards. […] The ELF volumes recovered by BAL were determined by using urea as an endogenous marker to provide a dilution ratio by measurement of urea concentrations in the BAL fluid and serum ([33]). […] The mean value for each time point was used to conduct the noncompartmental analysis using Phoenix (version 6.3) software (Pharsight Corporation, Mountain View, CA) and to calculate the values of the PK parameters on the basis of the mean profile in each matrix.

[7] = no reference given; cited from earlier work
[8] = parameters: method as in PMID 17039351; conditions: multiple-dose, adult patients with ventilator-associated pneumonia; cited from earlier work
[9] = both sexes, human, intravenous, ELF, same regimen
[10] = both sexes, human, intravenous, plasma, same regimen

**Q.** With `C[C@@H](O)[C@H]1C(=O)N2C(C(=O)O)=C(S[C@@H]3CN[C@H](C(=O)N(C)C)C3)[C@H](C)[C@H]12` [meropenem] as the compound, how does the “ELF/plasma concentration ratio estimated by population modeling” value [1] read?
**A.** 30%

**Q.** What about the “mean penetration ratio based on AUC” value [2] of the same compound?
**A.** 63%

**Q.** Which “ELF/plasma AUC ratio” value [3] does the source give for `Cn1c(N)c(NC(=O)NCCN)c[n+]1CC1=C(C(=O)O)N2C(=O)[C@@H](NC(=O)/C(=N\OC(C)(C)C(=O)[O-])c3nsc(N)n3)[C@H]2SC1` [ceftolozane] here?
**A.** 48%

**Q.** Which “mean penetration ratio based on AUC” value [2] does the source give for `O=C(O)C[C@@H]1CC[C@H](NC(=O)Cc2cccs2)B(O)O1` [RPX7009] here?
**A.** 53%

**Q.** With `CC1(C)S[C@@H]2[C@H](NC(=O)[C@H](N)c3ccc(O)cc3)C(=O)N2[C@H]1C(=O)O` [amoxicillin] as the compound, how does the “concentrations in ELF relative to those in plasma” value [4] read?
**A.** less than 20%

**Q.** Which “ELF/plasma AUC ratio” value [3] does the source give for `C[C@]1(Cn2ccnn2)[C@H](C(=O)O)N2C(=O)C[C@H]2S1(=O)=O` [tazobactam] here?
**A.** 44%

**Q.** What about the “mean concentrations in ELF relative to total concentrations in plasma” value [5] of the same compound?
**A.** ~91%

**Q.** For `O=C(O)[C@H]1/C(=C/CO)O[C@@H]2CC(=O)N21` [clavulanate], which “concentrations in ELF relative to those in plasma” value [4] is on record?
**A.** less than 20%

**Q.** For `C[C@@H](O)[C@H]1C(=O)N2C(C(=O)O)=C(SCCN=CN)C[C@H]12` [imipenem], which “t1/2 (terminal half-life)” value ([6]; ELF, same regimen) is on record?
**A.** 61.8 min

**Q.** And the half-life ([6]; both sexes, human, ELF, intravenous, ELF, same regimen)?
**A.** 60 min

**Q.** What about the concentration at 0.5 h ([6]; both sexes, human, ELF, intravenous, same regimen, 0.5 h after last dose, n=4, read-out: concn in ELF, GM) of the same compound?
**A.** 32.1 µM

**Q.** What about the concentration at 1 h ([6]; both sexes, human, ELF, intravenous, same regimen, 1 h after last dose, n=4, read-out: concn in ELF, GM) of the same compound?
**A.** 20.3 µM

**Q.** What about the concentration at 1.5 h ([6]; both sexes, human, ELF, intravenous, same regimen, 1.5 h after last dose, n=4, read-out: concn in ELF, GM) of the same compound?
**A.** 16.5 µM

**Q.** What about the concentration at 3 h ([6]; both sexes, human, ELF, intravenous, same regimen, 3 h after last dose, n=4, read-out: concn in ELF, GM) of the same compound?
**A.** 5.99 µM

**Q.** What about the Kp ([6]; both sexes, human, ELF/plasma, intravenous, calculated as 100 · ELF AUC0–∞/plasma AUC0–∞/0.8, adjusted for protein binding (80% unbound in plasma, 100% free in ELF), read-out: Adjusted ELF/plasma AUC0–∞ ratio) of the same compound?
**A.** 0.55

**Q.** What about the Kp ([6]; both sexes, human, ELF/plasma, intravenous, calculated as 100 · ELF AUC0–∞/plasma AUC0–∞, mean profiles, read-out: ELF/plasma AUC0–∞ ratio) of the same compound?
**A.** 0.442

**Q.** What about the Kp ([6]; both sexes, human, ELF/plasma, intravenous, same regimen, 0.5 to 3 h after last dose, read-out: GMRs for ELF/plasma concentrations, range across time points) of the same compound?
**A.** 0.32 to 0.55

**Q.** And the Kp at 1 h ([6]; both sexes, human, ELF/plasma, intravenous, same regimen, 1.0 h after last dose, n=4, read-out: ELF/plasma concn GMR (90% CI))?
**A.** 0.36

**Q.** And the Kp at 1.5 h ([6]; both sexes, human, ELF/plasma, intravenous, same regimen, 1.5 h after last dose, n=4, read-out: ELF/plasma concn GMR (90% CI))?
**A.** 0.55

**Q.** What about the Kp at 3 h ([6]; both sexes, human, ELF/plasma, intravenous, same regimen, 3.0 h after last dose, n=4, read-out: ELF/plasma concn GMR (90% CI)) of the same compound?
**A.** 0.5

**Q.** And the Kp at 0.5 h ([6]; both sexes, human, ELF/plasma, iv, healthy subjects, relebactam 250 mg with imipenem-cilastatin 500 mg IV every 6 h, 5 doses, 0.5 h after last dose, n=4, read-out: ELF/plasma concn GMR (90% CI))?
**A.** 0.32

**Q.** And the AUC(0-inf) [6, 9]?
**A.** 57.4 µM·h

**Q.** What about the Cmax [6, 9] of the same compound?
**A.** 32.6 µM

**Q.** And the Tmax [6, 9]?
**A.** 30 min

**Q.** What about the AUC(0-t) [6, 9] of the same compound?
**A.** 48.4 µM·h

**Q.** What about the AUC(0-inf) [6, 10] of the same compound?
**A.** 130 µM·h

**Q.** What about the Cmax [6, 10] of the same compound?
**A.** 99.6 µM

**Q.** What about the Tmax [6, 10] of the same compound?
**A.** 30 min

**Q.** What about the AUC(0-t) [6, 10] of the same compound?
**A.** 114 µM·h

**Q.** And the half-life ([6]; both sexes, human, plasma, intravenous, plasma, same regimen)?
**A.** 60 min

**Q.** And the “Adjusted ELF/plasma AUC0–∞ ratio” value ([6]; calculated as 100 · ELF AUC0–∞/plasma AUC0–∞/0.8, adjusted for protein binding (80% unbound in plasma, 100% free in ELF))?
**A.** 55.2%

**Q.** What about the “t1/2 (terminal half-life)” value ([6]; plasma, same regimen) of the same compound?
**A.** 57 min

**Q.** And the “concentrations in AC (alveolar cells)” value ([6]; same regimen)?
**A.** below the limit of quantitation

**Q.** And the “concentrations in AC (alveolar cells)” value ([6]; same regimen, listed as Imipenem)?
**A.** undetectable in the majority of patients; also recorded: not detected

**Q.** What about the “unbound in plasma (free fraction)” value [7] of the same compound?
**A.** 80%

**Q.** With `C[C@@H](O)[C@H]1C(=O)N2C(C(=O)O)=C(S[C@@H]3CN[C@H](C(=O)Nc4cccc(C(=O)O)c4)C3)[C@H](C)[C@H]12` [ertapenem] as the compound, how does the “ratios of ELF concentrations to total plasma concentrations, median” value [8] read?
**A.** 0.32
